Like-named read-outs stand apart in the source and are kept apart here.
Tested on: Pseudomonas aeruginosa (PA 01 strain)
Details: for Amount of pyocyanine produced per viable bacterial count Relative value (%): relative to control without compound; for Viable bacterial count: shake culture 37° C. 48 hours; for viable bacterial count compared with control: summary of Table 12; for amount of pyocyanine produced per viable bacterial count compared with control: summary of Table 13
[1] = Concentration of compound added 10 mM
[2] = Concentration of compound added 20 mM
[3] = Concentration of compound added 25 mM

| SMILES | Amount of pyocyanine produced per viable bacterial count Relative value (%) [1] [%] | Viable bacterial count [1] [mL⁻¹] | Amount of pyocyanine produced per viable bacterial count Relative value (%) [2] [%] | Viable bacterial count [2] [mL⁻¹] | Amount of pyocyanine produced per viable bacterial count Relative value (%) [3] [%] | Viable bacterial count [3] [mL⁻¹] | viable bacterial count compared with control | amount of pyocyanine produced per viable bacterial count compared with control |
| --- | --- | --- | --- | --- | --- | --- | --- | --- |
| O=P(O)(O)O [Phosphoric acid] | 118 | 1.6e+09 | 105.8 | 1.56e+09 | 107.6 | 1.49e+09 | almost no difference | not so different |
| C=CC(=O)O [Acrylic acid] | 250.1 | 1.09e+09 | 201.8 | 9.4e+08 | 233.1 | 8.4e+08 | almost no difference | larger than that in the control |
| O=P(O)(O)OP(=O)(O)OP(=O)(O)O [Triphosphoric acid] | 40.3 | 1.5e+09 | 11.5 | 1.5e+09 | 5.4 | 1.52e+09 | almost no difference | significantly lower |
